Assay results reported in ChEMBL document CHEMBL3763108, “Application of PEG-400 as a green biodegradable polymeric medium for the catalyst-free synthesis of spiro-dihydropyridines and their use as acetyl and butyrylcholinesterase inhibitors” (Bioorg Med Chem, 2016).

Legend:
[1] = target: Cholinesterase (Homo sapiens, UniProt P06276); assay: Inhibition of BChE (unknown origin) using acetylthiocholine as substrate assessed as reduction of DTNB to TNB preincubated for 20 mins followed by addition of substrate by Ellman's kinetic method
[2] = target: T1, Cholinesterases; ACHE & BCHE (Homo sapiens) (UniProt P06276+P22303); assay: Selectivity ratio of IC50 for AChE (unknown origin) to IC50 for BChE (unknown origin) by Ellman's kinetic method
[3] = target: T1, Cholinesterases; ACHE & BCHE (Homo sapiens); assay: Selectivity ratio of IC50 for BChE (unknown origin) to IC50 for AChE (unknown origin) by Ellman's kinetic method
[4] = target: Acetylcholinesterase (Homo sapiens, UniProt P22303); assay: Inhibition of AChE (unknown origin) using acetylthiocholine as substrate assessed as reduction of DTNB to TNB preincubated for 20 mins followed by addition of substrate by Ellman's kinetic method
Acetylcholinesterase, sequence (P22303 whole entry): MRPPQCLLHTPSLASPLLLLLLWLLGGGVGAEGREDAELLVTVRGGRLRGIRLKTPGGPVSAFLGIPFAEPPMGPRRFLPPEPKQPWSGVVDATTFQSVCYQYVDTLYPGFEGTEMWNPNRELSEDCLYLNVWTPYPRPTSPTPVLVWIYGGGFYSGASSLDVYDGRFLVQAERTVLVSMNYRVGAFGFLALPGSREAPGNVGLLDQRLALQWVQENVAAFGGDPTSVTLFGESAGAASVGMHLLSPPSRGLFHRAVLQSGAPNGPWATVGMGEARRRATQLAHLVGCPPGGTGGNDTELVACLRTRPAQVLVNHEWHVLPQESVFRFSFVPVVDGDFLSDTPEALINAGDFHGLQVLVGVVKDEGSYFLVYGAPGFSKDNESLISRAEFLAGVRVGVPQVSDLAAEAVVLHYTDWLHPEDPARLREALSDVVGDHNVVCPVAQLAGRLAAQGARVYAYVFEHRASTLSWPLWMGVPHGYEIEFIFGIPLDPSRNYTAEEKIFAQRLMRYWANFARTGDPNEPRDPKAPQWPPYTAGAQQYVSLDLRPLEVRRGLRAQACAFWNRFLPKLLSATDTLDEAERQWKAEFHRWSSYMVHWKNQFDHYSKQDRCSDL

T1 sequence (P06276 whole entry, looked up): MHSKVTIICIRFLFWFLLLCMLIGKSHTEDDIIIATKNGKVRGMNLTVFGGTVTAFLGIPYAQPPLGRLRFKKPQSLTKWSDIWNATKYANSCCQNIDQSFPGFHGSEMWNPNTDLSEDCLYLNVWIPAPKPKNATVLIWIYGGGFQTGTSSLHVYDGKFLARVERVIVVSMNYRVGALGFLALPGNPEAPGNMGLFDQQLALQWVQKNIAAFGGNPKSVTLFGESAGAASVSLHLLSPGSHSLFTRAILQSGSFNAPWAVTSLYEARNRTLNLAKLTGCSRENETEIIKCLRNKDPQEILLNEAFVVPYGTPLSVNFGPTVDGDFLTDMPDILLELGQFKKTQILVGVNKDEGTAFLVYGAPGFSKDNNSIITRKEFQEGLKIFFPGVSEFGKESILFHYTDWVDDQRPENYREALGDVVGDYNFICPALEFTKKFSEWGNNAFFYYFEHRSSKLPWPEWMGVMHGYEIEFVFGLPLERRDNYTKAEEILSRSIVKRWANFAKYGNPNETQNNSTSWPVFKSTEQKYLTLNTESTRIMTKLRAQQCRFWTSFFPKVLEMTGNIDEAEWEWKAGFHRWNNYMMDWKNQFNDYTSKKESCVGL
T1 sequence (P22303 whole entry, looked up): as the sequence (P22303 whole entry) above
Cholinesterase, sequence (P06276 whole entry): as the sequence (P06276 whole entry, looked up) above

Row | SMILES | IC50 [1] [µM] | Ratio IC50 [2] | Ratio IC50 [3] | IC50 [4] [µM]
1 | N#CC1=C(N)N(Cc2ccccc2)C(NCc2ccccc2)=C([N+](=O)[O-])C12C(=O)Nc1ccc(F)cc12 (stereo not drawn) | 15.1 | 0.235 | 4.26 | 3.54
2 | N#CC1=C(N)N2CCCNC2=C([N+](=O)[O-])C12C(=O)Nc1ccc(F)cc12 (stereo not drawn) | 14.7 | 0.029 | 35 | 0.42
3 | Cc1ccc2c(c1)C1(C(=O)N2)C(C#N)=C(N)N2CCNC2=C1[N+](=O)[O-] (stereo not drawn) | 16.2 | 0.238 | 4.21 | 3.86
4 | N#CC1=C(N)N(Cc2ccccc2)C(NCc2ccccc2)=C([N+](=O)[O-])C12C(=O)Nc1ccc([N+](=O)[O-])cc12 (stereo not drawn) | 15 | 0.225 | 4.44 | 3.37
5 | N#CC1=C(N)N2CCNC2=C([N+](=O)[O-])C12C(=O)c1ccc(Br)c3c(Br)ccc2c13 (stereo not drawn) | 26 | 0.245 | 4.09 | 6.37
6 | CC1(C)CNC2=C([N+](=O)[O-])C3(C(=O)Nc4ccc(F)cc43)C(C#N)=C(N)N2C1 (stereo not drawn) | 15.9 | 0.067 | 14.9 | 1.07
7 | Cc1ccc2c(c1)C1(C(=O)N2)C(C#N)=C(N)N2CC(C)(C)CNC2=C1[N+](=O)[O-] (stereo not drawn) | 14.7 | 0.095 | 10.6 | 1.39
8 | CC1(C)CNC2=C([N+](=O)[O-])C3(C(=O)c4cccc5cccc3c45)C(C#N)=C(N)N2C1 (stereo not drawn) | 25.4 | 0.303 | 3.3 | 7.71
9 | N#CC1=C(N)N2CCNC2=C([N+](=O)[O-])C12C(=O)Nc1ccccc12 (stereo not drawn) | 13.5 | 0.36 | 2.77 | 4.85
10 | COc1ccc2c3c1O[C@H]1CC(O)CC[C@@]31CCN(C)C2 (stereo partly drawn) |  | 0.196 | 5.12 | 
11 | N#CC1=C(N)N(Cc2ccccc2)C(NCc2ccccc2)=C([N+](=O)[O-])C12C(=O)c1cccc3cccc2c13 (stereo not drawn) | 23.8 | 0.25 | 4 | 5.96
12 | N#CC1=C(N)N(Cc2ccccc2)C(NCc2ccccc2)=C([N+](=O)[O-])C12C(=O)c1ccc(Br)c3c(Br)ccc2c13 (stereo not drawn) | 26.6 | 0.235 | 4.26 | 6.24
13 | N#CC1=C(N)N2CCNC2=C([N+](=O)[O-])C12C(=O)Nc1ccc([N+](=O)[O-])cc12 (stereo not drawn) | 14.1 | 0.23 | 4.34 | 3.24
14 | N#CC1=C(N)N2CCNC2=C([N+](=O)[O-])C12C(=O)Nc1ccc(F)cc12 (stereo not drawn) | 16.8 | 0.195 | 5.12 | 3.29
15 | N#CC1=C(N)N2CCCNC2=C([N+](=O)[O-])C12C(=O)Nc1ccccc12 (stereo not drawn) | 8.93 | 0.114 | 8.76 | 1.02
16 | CC1(C)CNC2=C([N+](=O)[O-])C3(C(=O)Nc4ccc([N+](=O)[O-])cc43)C(C#N)=C(N)N2C1 (stereo not drawn) | 11.9 | 0.13 | 7.71 | 1.54
17 | N#CC1=C(N)N2CCCNC2=C([N+](=O)[O-])C12C(=O)Nc1ccc([N+](=O)[O-])cc12 (stereo not drawn) | 12.4 | 0.092 | 10.8 | 1.15
18 | CC1(C)CNC2=C([N+](=O)[O-])C3(C(=O)Nc4ccccc43)C(C#N)=C(N)N2C1 (stereo not drawn) | 10.4 | 0.12 | 8.34 | 1.25
19 | N#CC1=C(N)N2CCCNC2=C([N+](=O)[O-])C12C(=O)c1cccc3cccc2c13 (stereo not drawn) | 26.1 | 0.252 | 3.96 | 6.59
20 | Cc1ccc2c(c1)C1(C(=O)N2)C(C#N)=C(N)N(Cc2ccccc2)C(NCc2ccccc2)=C1[N+](=O)[O-] (stereo not drawn) | 13.5 | 0.275 | 3.64 | 3.71
21 | N#CC1=C(N)N2CCNC2=C([N+](=O)[O-])C12C(=O)c1cccc3cccc2c13 (stereo not drawn) | 23.8 | 0.298 | 3.36 | 7.08
22 | CC1(C)CNC2=C([N+](=O)[O-])C3(C(=O)c4ccc(Br)c5c(Br)ccc3c45)C(C#N)=C(N)N2C1 (stereo not drawn) | 23.8 | 0.251 | 3.98 | 5.98
23 | N#CC1=C(N)N(Cc2ccccc2)C(NCc2ccccc2)=C([N+](=O)[O-])C12C(=O)Nc1ccccc12 (stereo not drawn) | 15.3 | 0.259 | 3.86 | 3.96
24 | N#CC1=C(N)N2CCCNC2=C([N+](=O)[O-])C12C(=O)c1ccc(Br)c3c(Br)ccc2c13 (stereo not drawn) | 24.7 | 0.272 | 3.68 | 6.71
25 | Cc1ccc2c(c1)C1(C(=O)N2)C(C#N)=C(N)N2CCCNC2=C1[N+](=O)[O-] (stereo not drawn) | 12.3 | 0.076 | 13.1 | 0.94
